Data: patent US11406721B2, “Compositions and methods for imaging cell populations” (The Regents of the University of California, priority 2016, dated 2022)

Tests used:
Type in all cases: physicochemical
[1] = Small fluorinated diketones: relaxation enhancement and stability under EDTA competition and cell labeling; details: metalated small fluorinated diketones
Text: It may be necessary for sufficient stability to use fluorinated diketones with heavily fluorinated substituents that are well-miscible with other fluorinated agents known in the art to be useful for ^19F MRI.

[2] = 19F relaxometry of organic solutions containing paramagnetic dpm complexes; details: 50 mM complexes in 1:1 v/v PhCF3:acetone-d6, 9.4 T
Procedure: FIG. 10. ^19F relaxometry of organic solutions containing paramagnetic complexes. Relaxation rates of the CF3 group were measured in the presence of 50 mM tris-(dipivaloylmethanato) complexes Fe(dpm)3 (left) and Gd(dpm)3 (right) in 1:1 v/v PhCF3:acetone-d6 at 9.4 T in a sealed 5 mm NMR tubes. […] Solid lines are guide for the eye. While monomeric Fe(dpm)3 was highly soluble in PhCF3 alone, polymeric Gd(dpm)3 dissolved only in the presence of Lewis basic solvent acetone-d6. […] The observed ratio between R1(Gd) and R1(Fe) was 1.72-1.77, consistent with the expected 1.8-fold difference due to the S(S+1) term in Eq. S, curtailed by a slight increase in the distance of minimal approach due to the larger size of Gd.
To highlight the critical effect of viscosity on relaxation rates, we measured PRE caused by different metal ions in non-viscous organic solutions containing trifluorotoluene (PhCF3) and iron or gadolinium chelates of dipivaloylmethane, Fe(dpm)3 and Gd(dpm)3. Under these conditions, gadolinium provided higher R1 than iron, as expected from the greater spin of Gd^3+. […] In contrast, the divergent temperature dependence of R1 and R2 in FETRIS nanoemulsion (FIG. 3D) is indicative of slow molecular motion in the fluorous phase.

[3] = Kinetic measurements of metal uptake into emulsion (UV-Vis); details: emulsion from example 4
Procedure: FIG. 15. Time course of metalation of FETRIS nanoemulsion with Fe^3+. Shown is the metalation of emulsion B (70 μM pAn-FDK and 10 μM Fe^3+, 8 mM HCl, pH 2.1). A single exponential fit yields kobs=0.69±0.10 min^−1
Strong absorbance of aromatic diketone and its complexes permits facile kinetic investigation of metalation rates. In atypical measurement, emulsion from example 4 was diluted to 70 uM diketone (excess ligand, modeling radiolabeling conditions) into a solution of chosen pH and treated with 10 uM metal cations of relevance to medical imaging, including Fe^3+ (MRI), Cu^2+ (PET), Ga^3+ (PET, SPECT), Sc^3+ (PET), and In^3+ (SPECT). In all cases, UV-Vis spectral changes indicative of metal uptake into the fluorous phase were detected, proportional in magnitude to the amount of metal. For some metals, kinetic analysis was performed. The reaction time course fit well to a pseudo-first-order process with rate constant kobs (Table 4).

[4] = 19F relaxometry of PFPE nanoemulsion doped with H-fod and metal chloride; details: 9.4 T
Text: FIG. 1. Comparison of iron and gadolinium diketonates (H-fod) as ^19F relaxation agents for PFPE. […] R1 and R2 values are reported for the main PFPE peak at −91.4 ppm.
FIG. 11. ^19F relaxometry of PFPE with metalated small diketones. PFPE nanoemulsion was doped in the fluorous phase with small fluorinated diketones H-fod and H-hfp. […] The left panels display broad ^19F NMR signals of CF2 groups of H-fod and H-hfp observed in the absence of metals indicating poor solubility of the ligands in the fluorous phase. […] The right panel show the time course of metalation of PFPE+H-fod nanoemulsion measured by ^19F relaxometry. R1 and R2 were measured for main PFPE peak at −91 ppm at different time points. The solid lines are guides for the eye. The appearance of orange color of Fe(fod)3 correlated with an increase in relaxation rates. Metalation of PFPE emulsions doped with H-fod with Fe^3+ was several orders of magnitude slower than metalation of emulsions containing pAn-FDK (FIG. 15).
Initially, the results of the PRE modeling [Example 2 and FIG. 9] using small molecules were tested. Fluorinated β-diketone H-fod (FIG. 1) was chosen as starting point. […] Addition of 0.7 mM FeCl3 led to the slow formation of orange-colored Fe(fod)3 and a commensurate increase in R1 from 2.3 to 27.0 s^−1 and in R2 from 4.0 to 85.6 s^−1 (at 9.4 T) of the major PFPE resonance (−91.4 ppm) by 24 hours (FIG. 11). With GdCl3, lower R1 (12.8 s^−1) and higher R2 (285 s^−1) values were obtained.

[5] = final [M^3+] 10 uM, [ligand] 70 uM, pH 2.1 (8 mM HCl)

| Structure (SMILES) | enhancing relaxation [1] | stability under the conditions of EDTA competition and cell labeling [1] | other results |
| --- | --- | --- | --- |
| O=C(CC(=O)C(F)(F)F)c1ccccc1 [H-bta] | highly effective | not stable enough |  |
| C/C(O)=C/C(=O)C(F)(F)C(F)(F)C(F)(F)C(F)(F)C(F)(F)C(F)(F)F [H-tdd] | highly effective | not stable enough |  |
| CC(C)(C)C(=O)C=C(O)C(C)(C)C.CC(C)(C)C(=O)C=C(O)C(C)(C)C.CC(C)(C)C(=O)C=C(O)C(C)(C)C.[Gd] [Gd(dpm)3] |  |  | ratio between R1(Gd) and R1(Fe) [2]: 1.72-1.77 |
| [Cl][Fe]([Cl])[Cl] [FeCl3] |  |  | kobs ([3]; final [M^3+] 5 uM, [ligand] 70 uM, pH 2.1 (8 mM HCl)): 0.79 min⁻¹; kobs [3, 5]: 0.70 min⁻¹ |
| CC(C)(C)/C(O)=C/C(=O)C(F)(F)C(F)(F)C(F)(F)F [H-fod] | highly effective | not stable enough | R1 of major PFPE resonance (−91.4 ppm) ([4]; PFPE nanoemulsion + 2.8 mM H-fod + 0.7 mM FeCl3, by 24 hours): 27.0 s⁻¹; R1 of major PFPE resonance ([4]; PFPE nanoemulsion + 2.8 mM H-fod with GdCl3): 12.8 s⁻¹; R1 of major PFPE resonance (−91.4 ppm) ([4]; PFPE nanoemulsion + 2.8 mM H-fod, before metal addition): 2.3 s⁻¹ |
| [Cl-].[Cl-].[Cl-].[In+3] [InCl3] |  |  | kobs ([3]; final [M^3+] 2 uM, [ligand] 14 uM, pH ~5 (unbuffered H2O)): >10 min⁻¹; kobs ([3]; final [M^3+] 10 uM, [ligand] 70 uM, pH 7.4 HEPES): 0.0322 min⁻¹ |
| C/C(O)=C/C(=O)C(F)(F)C(F)(F)C(F)(F)F [H-hhd] | highly effective | not stable enough |  |
| [Cl][Ga]([Cl])[Cl] [GaCl3] |  |  | kobs [3, 5]: 0.043 min⁻¹ |
| O=C(CC(=O)C(F)(F)F)c1cccs1 [H-tta] | highly effective | not stable enough |  |
| O=C(/C=C(\O)c1ccccc1)C(F)F [H-bda] | highly effective | not stable enough |  |
